# Measured values reported in patent publication US20250197864A1, “LNCRNA TRANSCRIPTS IN MELANOMAGENESIS” (The Regents of the University of California, priority 2021, published 2025).
# Tested on: gene expression in D04 melanoma cells
# Assay: RNA-Seq differential expression analysis (DESeq2)
# Type: cell-based, human
# Conditions: up-regulated list
# Method: Total RNA was isolated using the RNeasy mini Kit (QIAGEN) following the manufacturer's protocol. Quality check for extracted RNA was done using 2100 Bioanalyzer (Agilent Technologies, USA) or Tapestation System (Agilent Technologies, USA). […] For samples used for identification of MAPK-responsive lncRNAs, paired-end, 101-bp sequencing was performed by Centrillion Genomic Services (Centrillion Biosciences, USA) on an Illumina HiSeq 2000. For DE gene analysis of ASO-transfected D04 samples, paired-end, 2×150-bp sequencing was performed by Genewiz (USA) on a Illumina HiSeq.
# Sequence reads were aligned to the human genome (hg19) using TopHat (Version 2.0.11).
# Differential expression (DE) analysis was done using DESeq2. Differentially expressed genes were defined by more than 1.5-fold changes (log 2 >0.58 or <−0.58) in expression with FDR<0.05. GO term analysis was done using DAVID Functional Annotation Clustering analysis.
# To examine the biomolecular changes upon TRASH-inhibition in melanoma, D04 cells were treated with TRASH-ASOs (SEQ ID NO:15) and Control-ASOs and RNA was extracted and used for RNA-Seq. […] These GO terms consisted of genes encoding growth factors, tyrosine kinases, G protein coupled receptor subunits, and collagen subunits. Scatter plot diagram showing differential gene expression after TRASH-ASO treatment compared to Control-ASO treatment. (cut-off for significance was adjusted p-value <0.05). Data was obtained from RNA-Seq of D04 melanoma cells, treatment period was three days. (FIG. 5c)
sequence,measurement,setting,value
"GACTGGAGATAATTAA (gapmer, pattern not given here) [SEQ ID NO: 15, GapmeR ASO targeting AC004540.4 (TRASH), exon region of both isoforms; used for in vitro experiments]",log2FoldChange HIST3H2A,ENSG00000181218,0.6762
same,log2FoldChange GPR3,ENSG00000181773,0.5989
same,log2FoldChange IBA57,ENSG00000181873,0.6496
same,log2FoldChange KCNJ14,ENSG00000182324,0.8416
same,log2FoldChange MEX3B,ENSG00000183496,0.7229
same,log2FoldChange SLC35F3,ENSG00000183780,0.8791
same,log2FoldChange TXNRD2,ENSG00000184470,0.5869
same,log2FoldChange OSBP2,ENSG00000184792,1.106
same,log2FoldChange SDR42E1,ENSG00000184860,0.9762
same,log2FoldChange MAFF,ENSG00000185022,0.6847
same,log2FoldChange SOCS1,ENSG00000185338,0.6402
same,log2FoldChange PMEL,ENSG00000185664,0.9831
same,log2FoldChange MYBL1,ENSG00000185697,0.6266
same,log2FoldChange PCLO,ENSG00000186472,0.6974
same,log2FoldChange MT1X,ENSG00000187193,0.7581
same,log2FoldChange MAGEH1,ENSG00000187601,0.7858
same,log2FoldChange ZFP69B,ENSG00000187801,0.7093
same,log2FoldChange ZP3,ENSG00000188372,0.8099
same,log2FoldChange C22orf34,ENSG00000188511,0.661
same,log2FoldChange GJB3,ENSG00000188910,1.136
same,log2FoldChange GJB5,ENSG00000189280,1.088
same,log2FoldChange SH2D5,ENSG00000189410,1.08
same,log2FoldChange PLEKHG4,ENSG00000196155,0.6321
same,log2FoldChange CD55,ENSG00000196352,0.645
same,log2FoldChange NUDT11,ENSG00000196368,0.6654
same,log2FoldChange AC009022.1,ENSG00000196696,0.6881
same,log2FoldChange S100A2,ENSG00000196754,0.5809
same,log2FoldChange SLC6A17,ENSG00000197106,1.129
same,log2FoldChange ZNF860,ENSG00000197385,0.5877
same,log2FoldChange VEPH1,ENSG00000197415,0.5803
same,log2FoldChange ZNF841,ENSG00000197608,0.6523
same,log2FoldChange SERPINB2,ENSG00000197632,0.8127
same,log2FoldChange PDCD1LG2,ENSG00000197646,1.192
same,log2FoldChange FAM49A,ENSG00000197872,0.7378
same,log2FoldChange HRNR,ENSG00000197915,0.6084
same,log2FoldChange CSF2RA,ENSG00000198223,1.103
same,log2FoldChange CD247,ENSG00000198821,1.07
same,log2FoldChange HSD3BP5,ENSG00000198857,0.8606
same,log2FoldChange LINC01291,ENSG00000204792,0.9824
same,log2FoldChange KRT81,ENSG00000205426,0.8139
same,log2FoldChange TRBC2,ENSG00000211772,0.6815
same,log2FoldChange ANG,ENSG00000214274,1.047
same,log2FoldChange FER1L6,ENSG00000214814,0.6181
same,log2FoldChange UBE2QL1,ENSG00000215218,0.6007
same,log2FoldChange PLXNA4,ENSG00000221866,1.101
same,log2FoldChange RNU2-63P,ENSG00000222724,0.6055
same,log2FoldChange ROR1-AS1,ENSG00000223949,0.9732
same,log2FoldChange ZMIZ1-AS1,ENSG00000224596,0.9113
same,log2FoldChange AC017002.1,ENSG00000224959,0.6679
same,log2FoldChange AL354740.1,ENSG00000225339,0.7567
same,log2FoldChange CFLAR-AS1,ENSG00000226312,0.8124
same,log2FoldChange AC016831.1,ENSG00000226380,0.8375
same,log2FoldChange ERVMER34-1,ENSG00000226887,0.9222
same,log2FoldChange AC020571.1,ENSG00000229056,0.6243
same,log2FoldChange AL589880.1,ENSG00000229939,0.6572
same,log2FoldChange AL590666.2,ENSG00000229953,0.9636
same,log2FoldChange LINC01293,ENSG00000230836,1.066
same,log2FoldChange LINC00704,ENSG00000231298,0.7366
same,log2FoldChange AL603650.1,ENSG00000232355,1.015
same,log2FoldChange LINC02535,ENSG00000234155,1.054
same,log2FoldChange PINLYP,ENSG00000234465,0.7137
same,log2FoldChange RPL13AP20,ENSG00000234498,1.162
same,log2FoldChange C19orf81,ENSG00000235034,0.9948
same,log2FoldChange LINC00941,ENSG00000235884,0.9292
same,log2FoldChange PNMA6A,ENSG00000235961,0.8869
same,log2FoldChange AL354719.2,ENSG00000236345,1.16
same,log2FoldChange GGT8P,ENSG00000236969,1.181
same,log2FoldChange AL138828.1,ENSG00000237596,1.06
same,log2FoldChange OXCT2P1,ENSG00000237624,1.01
same,log2FoldChange SPATA3-AS1,ENSG00000238062,1.082
same,log2FoldChange AC026250.1,ENSG00000245522,0.9507
same,log2FoldChange SBF2-AS1,ENSG00000246273,0.9574
same,log2FoldChange AC104066.1,ENSG00000248375,0.8941
same,log2FoldChange LINC02021,ENSG00000249846,1.04
same,log2FoldChange AC091173.1,ENSG00000251127,1.149
same,log2FoldChange SMG1P6,ENSG00000254634,1.045
same,log2FoldChange ZNF10,ENSG00000256223,0.6255
same,log2FoldChange C17orf100,ENSG00000256806,0.644
same,log2FoldChange AC073611.1,ENSG00000257605,0.6207
same,log2FoldChange LINC01579,ENSG00000258754,0.7555
same,log2FoldChange AC013652.1,ENSG00000259345,0.6859
same,log2FoldChange AC011468.1,ENSG00000260160,0.8721
same,log2FoldChange LINC02170,ENSG00000260896,0.7455
same,log2FoldChange LINC00622,ENSG00000260941,0.6079
same,log2FoldChange EPPK1,ENSG00000261150,0.7148
same,log2FoldChange LINC01029,ENSG00000265843,0.6081
same,log2FoldChange PCAT19,ENSG00000267107,1.193
